The results in this text go back to PMC2866134 (Bioorganic & medicinal chemistry letters, 2010).

One experiment concerns the target VEGFR-1 (Homo sapiens, UniProt P17948). Put plainly: VEGFR-1 inhibition, whole cell phosphotyrosine ELISA cytoblot. The settings on record: whole cell assay. The experiment is classed as cell-based.
A further experiment has as its target PDGFR-β (Homo sapiens, UniProt P09619). Put plainly: PDGFR-β inhibition, whole cell phosphotyrosine ELISA cytoblot. The class given is cell-based. The following applies: whole cell assay.

The structures appear in SMILES notation.

Sequence of PDGFR-β (P09619 33-1106): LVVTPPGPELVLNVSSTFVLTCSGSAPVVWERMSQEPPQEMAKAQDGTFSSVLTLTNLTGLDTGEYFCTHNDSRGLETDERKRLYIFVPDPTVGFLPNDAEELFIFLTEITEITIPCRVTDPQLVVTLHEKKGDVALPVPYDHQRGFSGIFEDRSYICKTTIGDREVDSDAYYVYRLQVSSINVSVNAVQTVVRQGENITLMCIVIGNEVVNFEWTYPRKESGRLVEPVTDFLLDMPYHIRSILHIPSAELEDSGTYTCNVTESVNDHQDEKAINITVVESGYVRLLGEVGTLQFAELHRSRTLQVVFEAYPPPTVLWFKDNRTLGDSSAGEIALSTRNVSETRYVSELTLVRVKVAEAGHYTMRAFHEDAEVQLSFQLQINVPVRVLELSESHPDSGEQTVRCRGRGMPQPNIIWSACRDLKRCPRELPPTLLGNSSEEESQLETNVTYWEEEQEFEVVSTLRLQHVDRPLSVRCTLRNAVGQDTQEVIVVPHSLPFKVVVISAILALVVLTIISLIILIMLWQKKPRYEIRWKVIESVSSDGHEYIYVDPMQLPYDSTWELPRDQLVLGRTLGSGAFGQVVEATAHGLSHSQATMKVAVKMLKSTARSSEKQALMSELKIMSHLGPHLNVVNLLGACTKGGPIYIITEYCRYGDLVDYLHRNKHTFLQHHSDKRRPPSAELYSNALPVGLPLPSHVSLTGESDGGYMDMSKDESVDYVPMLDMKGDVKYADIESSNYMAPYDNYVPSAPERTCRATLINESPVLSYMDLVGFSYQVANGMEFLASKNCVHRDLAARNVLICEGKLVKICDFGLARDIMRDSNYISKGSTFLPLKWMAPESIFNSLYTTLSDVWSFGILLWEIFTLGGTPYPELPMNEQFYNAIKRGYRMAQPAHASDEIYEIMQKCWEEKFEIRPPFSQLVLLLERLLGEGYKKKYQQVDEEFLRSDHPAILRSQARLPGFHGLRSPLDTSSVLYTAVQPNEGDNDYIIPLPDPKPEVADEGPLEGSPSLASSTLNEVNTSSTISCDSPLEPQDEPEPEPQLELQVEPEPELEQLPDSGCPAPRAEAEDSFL
Sequence of VEGFR-1 (P17948 27-1338): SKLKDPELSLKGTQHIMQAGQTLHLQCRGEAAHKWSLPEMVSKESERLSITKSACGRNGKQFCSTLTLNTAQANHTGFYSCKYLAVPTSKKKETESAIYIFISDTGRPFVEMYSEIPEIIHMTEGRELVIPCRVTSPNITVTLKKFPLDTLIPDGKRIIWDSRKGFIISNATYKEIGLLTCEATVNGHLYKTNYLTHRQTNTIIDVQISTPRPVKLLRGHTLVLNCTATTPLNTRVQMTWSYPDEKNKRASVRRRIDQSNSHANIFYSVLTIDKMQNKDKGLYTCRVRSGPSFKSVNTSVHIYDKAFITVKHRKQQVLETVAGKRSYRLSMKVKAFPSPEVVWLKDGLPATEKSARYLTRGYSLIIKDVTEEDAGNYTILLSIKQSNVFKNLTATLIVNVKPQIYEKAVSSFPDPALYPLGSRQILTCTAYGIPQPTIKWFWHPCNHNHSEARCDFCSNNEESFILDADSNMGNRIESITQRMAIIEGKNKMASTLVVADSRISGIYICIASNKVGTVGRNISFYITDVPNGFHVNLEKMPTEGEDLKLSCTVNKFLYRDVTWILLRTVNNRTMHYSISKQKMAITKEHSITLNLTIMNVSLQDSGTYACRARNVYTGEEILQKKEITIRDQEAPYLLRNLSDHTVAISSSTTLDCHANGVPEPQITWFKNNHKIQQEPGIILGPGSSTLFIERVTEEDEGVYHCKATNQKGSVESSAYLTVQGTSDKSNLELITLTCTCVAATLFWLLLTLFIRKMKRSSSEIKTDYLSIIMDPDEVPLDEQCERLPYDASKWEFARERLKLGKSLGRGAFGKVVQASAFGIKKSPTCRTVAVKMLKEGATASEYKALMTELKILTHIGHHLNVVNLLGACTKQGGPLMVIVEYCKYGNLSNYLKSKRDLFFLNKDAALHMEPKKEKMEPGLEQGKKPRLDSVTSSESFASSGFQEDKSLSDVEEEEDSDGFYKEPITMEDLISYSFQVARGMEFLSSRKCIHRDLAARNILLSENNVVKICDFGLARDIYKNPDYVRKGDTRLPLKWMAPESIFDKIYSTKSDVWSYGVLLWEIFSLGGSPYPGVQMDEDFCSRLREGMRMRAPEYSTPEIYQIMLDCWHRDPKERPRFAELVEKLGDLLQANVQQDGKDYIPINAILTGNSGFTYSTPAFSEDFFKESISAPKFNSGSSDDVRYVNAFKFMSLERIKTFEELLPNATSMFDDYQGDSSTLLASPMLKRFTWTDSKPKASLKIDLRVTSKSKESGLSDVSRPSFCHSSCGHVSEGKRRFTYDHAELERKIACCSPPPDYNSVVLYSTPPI

Take `FC(F)(F)c1cccc(Nc2ncnc3[nH]c(CCc4ccccc4)cc23)c1` [Compound 21]: the “VEGFR-1 inhibition, result in words” value on VEGFR-1 was “inactive”. On PDGFR-β, the “PDGFR-β inhibition, result in words” value was “inactive”.

Turning to `Fc1ccc(Nc2ncnc3[nH]c(CCc4ccccc4)cc23)cc1C(F)(F)F` [Compound 23], the “PDGFR-β inhibition, result in words” value on PDGFR-β is “inactive”.

Take `C#Cc1cccc(Nc2ncnc3[nH]c(CCc4ccccc4)cc23)c1` [Compound 20]: the “PDGFR-β inhibition, result in words” value at PDGFR-β is “inactive”.

Consider `Fc1ccc(Nc2ncnc3[nH]c(CCc4ccccc4)cc23)cc1Br` [Compound 22], for which the “VEGFR-1 inhibition, result in words” value at VEGFR-1 is “inactive”.

For the compound `Fc1cc(Cl)ccc1Nc1ncnc2[nH]c(CCc3ccccc3)cc12` [Compound 24], at VEGFR-1, the “VEGFR-1 inhibition, result in words” value is “inactive”. Moreover, on PDGFR-β, the “PDGFR-β inhibition, result in words” value was “inactive”.
